Test results as given in patent US6579881B2 (Eisai Co., Ltd., priority 1997, dated 2003).
Structures can show the parent of a compound that is named as a salt. Where two headings read alike, the source gives them in different places.

What was measured:
[1] = target: T1, serotonin 1A receptor (Rattus norvegicus, UniProt P19327); experiment: Binding test on [3H] 8-hydroxy-dipropylaminotetralin (serotonin 1A receptor); conditions: [3H] 8-OH-DPAT 0.5 nM, receptor fraction of rat hippocampus; read-out: 5HT1a
T1 construct: To the receptor fraction of the hippocampus were added a test compound and 0.5 nM of [^3H]; 8-hydroxy-dipropylaminotetralin; from tissue; host or cells: SD rat hippocampus, membrane (receptor) fraction
T1 sequence (P19327 1-422): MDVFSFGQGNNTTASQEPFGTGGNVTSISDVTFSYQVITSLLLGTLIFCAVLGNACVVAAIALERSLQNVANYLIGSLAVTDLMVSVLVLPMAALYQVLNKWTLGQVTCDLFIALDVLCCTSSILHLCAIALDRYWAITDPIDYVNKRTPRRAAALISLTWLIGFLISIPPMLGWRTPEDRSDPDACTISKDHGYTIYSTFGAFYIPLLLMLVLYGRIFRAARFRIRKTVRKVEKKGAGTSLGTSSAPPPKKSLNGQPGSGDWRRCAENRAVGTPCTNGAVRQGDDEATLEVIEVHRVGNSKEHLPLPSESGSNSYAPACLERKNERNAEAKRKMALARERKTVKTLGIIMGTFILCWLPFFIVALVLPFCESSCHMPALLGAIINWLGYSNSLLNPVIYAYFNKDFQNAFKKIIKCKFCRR

[2] = target: serotonin 2 receptor (Rattus norvegicus, UniProt P14842); experiment: Binding test on [3H] ketanserin (serotonin 2 receptor); conditions: [3H] ketanserin 0.3 nM, receptor fraction of rat cerebral cortex; read-out: 5HT2
[3] = target: α1 adrenalin receptor; experiment: Binding test on [3H] prazosin (α1 adrenalin receptor); design: species or system rat
[4] = [3H] prazosin about 0.2 nM, receptor fraction of rat cerebral cortex

Sequence of serotonin 2 receptor (P14842 whole entry): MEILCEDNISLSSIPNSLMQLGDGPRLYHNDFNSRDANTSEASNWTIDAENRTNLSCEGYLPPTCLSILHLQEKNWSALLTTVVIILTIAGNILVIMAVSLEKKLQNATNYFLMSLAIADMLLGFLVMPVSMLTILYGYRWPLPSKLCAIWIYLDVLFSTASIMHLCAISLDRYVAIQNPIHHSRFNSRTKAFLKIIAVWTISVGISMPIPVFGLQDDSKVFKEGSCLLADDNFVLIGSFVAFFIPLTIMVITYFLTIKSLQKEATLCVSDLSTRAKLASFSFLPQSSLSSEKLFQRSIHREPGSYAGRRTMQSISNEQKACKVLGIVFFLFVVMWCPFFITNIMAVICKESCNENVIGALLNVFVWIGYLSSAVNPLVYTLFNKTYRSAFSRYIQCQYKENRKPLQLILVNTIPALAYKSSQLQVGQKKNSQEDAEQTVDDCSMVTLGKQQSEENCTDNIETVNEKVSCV

Row | Ki [1] [nM] | Ki [2] [nM] | Ki [3, 4] [nM] | Molecule | Ki [3] [nM]
1 | 0.99 | 11.6 | 34.3 | O=Cc1ccc2ccn(C3CCN(CCc4ccccc4F)CC3)c2c1 [Example 390, 1-[1-(2-fluorophenethyl)piperidin-4-yl]-6-formylindole] | 
2 | 3.02 | 2.84 | 340 | O=C(Cc1ccc2ccn(C3CCN(CCc4ccc(F)cc4)CC3)c2c1)NCC(O)CO (stereo not shown) [Example 340, 1-[1-(4-fluorophenethyl)piperidin-4-yl]-6-(1,2-dihydroxypropan-3-yl)carbamoylmethylindole Oxalate] | 
3 | 14.2 | 1.54 | 43.7 | CN(C)CCC(=O)NCc1ccc2ccn(C3CCN(CCc4ccc(F)cc4)CC3)c2c1 [Example 378, 1-[1-(4-fluorophenethyl)piperidin-4-yl]-6-(3-N,N-dimethylaminopropionyl)aminomethylindole] | 
4 | 0.2 | 14.6 | 77.8 | Nc1nc2cc3c(cc2s1)CCN3C1CCN(CCc2ccc(F)cc2)CC1 [Example 235] | 
5 | 0.46 | 3.54 | 144 | CCCC(=O)NCc1ccc2ccn(C3CCN(CCc4ccc(F)cc4)CC3)c2c1 [Example 362, 1-[1-(4-fluorophenethyl)piperidin-4-yl]-6-(n-butyryl)aminomethylindole] | 
6 | 3.6 | 35.8 | 307 | O=C(Cc1ccc2ccn(C3CCN(CCc4ccc(F)cc4)CC3)c2c1)N(CCO)CCO [Example 303, 1-[1-(4-fluorophenethyl)piperidin-4-yl]-6-[bis(2-hydroxyethyl)]carbamoylmethylindole Oxalate] | 
7 | 4.7 | 42.9 | 81.6 | CC1CN(C2CCN(CCc3ccc(F)cc3)CC2)c2ccccc21 (stereo not shown) [Example 216, 1-[1-(4-fluorophenethyl)piperidin-4-yl]-3-methylindoline] | 
8 | 1.63 | 0.56 | 37.6 | O=C(NCc1ccc2ccn(C3CCN(CCc4ccc(F)cc4)CC3)c2c1)n1ccnc1 [Example 368, 1-[1-(4-fluorophenethyl)piperidin-4-yl]-6-imidazocarbonylaminomethylindole] | 
9 | 0.65 | 38.1 | 25 | CC(O)c1ccc2ccn(C3CCN(CCc4ccc(F)cc4)CC3)c2c1 (stereo not shown) [Example 392, 1-[1-(4-fluorophenethyl)piperidin-4-yl]-6-(1-hydroxyethyl)indole Oxalate] | 
10 | 2.02 | 2.88 | 121 | O=C(CCO)NCc1ccc2ccn(C3CCN(CCc4ccc(F)cc4)CC3)c2c1 [Example 369, 1-[1-(4-fluorophenethyl)piperidin-4-yl]-6-(3-hydroxypropionylamino)methylindole] | 
11 | 26.6 | > 20 | 690 | CC(=O)NCc1ccc2ccn(C3CCN(CCCc4ccc(F)cc4)CC3)c2c1 [Example 360, 1-{1-[3-(4-fluorophenyl)propyl]-piperidin-4-yl}-6-acetamidomethylindole] | 
12 | 0.4 | > 20 | 167 | O=S1(=O)CCCN1Cc1ccc2ccn(C3CCN(CCc4ccc(F)cc4)CC3)c2c1 [Example 326, 1-[1-(4-fluorophenethyl)piperidin-4-yl]-6-(1,3-propanesultam-2-yl)methylindole] | 
13 | 0.34 | 4.7 |  | CS(=O)(=O)c1ccc2c(c1)N(C1CCN(CCc3ccc(F)cc3)CC1)CC2 [Example 128, 1-[1-(4-fluorophenethyl)piperidin-4-yl]-6-methanesulfonylindoline] | 
14 | > 200 | 53 |  | CCN1CCC(CN2CC(Cc3ccc(OC)cc3)c3ccccc32)CC1 (stereo not shown) [Example 243, 1-[(1-ethylpiperidin-4-yl)methyl]-3-(4-methoxybenzyl)indoline] | 
15 | 4.5 | 11.7 |  | CS(=O)(=O)Nc1cc2c(cc1Cl)CCN2C1CCN(CCc2ccc(F)cc2)CC1 [Example 218, 1-[1-(4-fluorophenethyl)piperidin-4-yl]-5-chloro-6-methanesulfonylaminoindoline] | 
16 | 10.2 | 2.53 |  | OC(c1ccncc1)c1ccc2c(c1)N(C1CCN(CCc3ccc(F)cc3)CC1)CC2 (stereo not shown) [Example 178] | 
17 | 0.04 | 18.1 |  | CC(=O)Nc1ccc2c(c1)N(C1CCN(CCc3ccc(F)cc3F)CC1)CC2 [Example 222, 1-[1-(2,4-difluorophenethyl)piperidin-4-yl]-6-acetamidoindoline] | 
18 | 5.74 | 7.61 |  | NC(=O)Cc1ccc2c(c1)N(C1CCN(CCc3ccc(F)cc3F)CC1)CC2 [Example 225, 1-[1-(2,4-difluorophenethyl)piperidin-4-yl]-6-carbamoylmethylindoline] | 
19 | 1.86 | 3.36 |  | FCc1ccc2c(c1)N(C1CCN(CCc3ccc(F)cc3)CC1)CC2 [Example 143, 1-[1-(4-fluorophenethyl)piperidin-4-yl]-6-fluoromethylindoline] | 
20 | 0.21 | 5.08 |  | CC(=O)c1ccc2c(c1)N(C1CCN(CCc3ccc(F)cc3)CC1)CC2 [Example 127, 1-[1-(4-fluorophenethyl)piperidin-4-yl]-6-acetylindoline] | 
21 | 13 | 0.16 |  | CCCNC(=O)Cc1ccc2c(c1)N(C1CCN(CCc3ccc(F)cc3)CC1)CC2 [Example 150, 1-[1-(4-fluorophenethyl)piperidin-4-yl]-6-(n-propylcarbamoylmethyl)indoline] | 

More lines, now with the values behind:

Row | Molecule | Ki [1] [nM] | Ki [2] [nM] | Ki [3, 4] [nM] | Ki [3] [nM]
22 | COc1cccc(CCN2CCC(N3CCc4ccccc43)CC2)c1 [Example 19, 1-[1-(3-methoxyphenethyl)piperidin-4-yl]indoline] | 8.8 | 7 | 55.5 | 
23 | O=C1NCCN1Cc1ccc2ccn(C3CCN(CCc4ccc(F)cc4)CC3)c2c1 [Example 355, 1-[1-(4-fluorophenethyl)piperidin-4-yl]-6-(2-imidazolidonyl)methylindole] | 0.35 | 6.87 | 39.5 | 
24 | Fc1ccc(CCN2CCN(C3CCCc4cnccc43)CC2)cc1 (stereo not shown) [Example 283, 5-{4-[2-(4-fluorophenyl)ethyl]piperazin-1-yl}-5,6,7,8-tetrahydroisoquinoline Hydrochloride] | 39.5 | 40.9 |  | 197
25 | OCCOc1ccc(CCN2CCC(N3CCc4ccccc43)CC2)cc1 [Example 26, 1-{1-[4-(2-hydroxyethoxy)phenethyl]piperidin-4-yl}indoline] | 2.9 | 19.5 | 51.1 | 
26 | 1-[1-(4-fluorophenethyl)piperidin-4-yl]-7-hydroxy-(4a,7a)-cyclohexanoindoline and 1-[1-(4-fluorophenethyl)piperidin-4-yl]-4-hydroxy-(3b,6a)-cyclohexanoindoline [Example 236] | 29.2 | 10.6 | 72.2 | 
27 | Cc1nc2sccn2c(=O)c1CCN1CCC(N2CCc3ccccc32)CC1 [Co. No. 5 given in WO96/23784, 1-{1-[2-(5-oxo-7-methyl-5H-pyrimidino[2,1-b][1,3]thiazol-6-yl)ethyl]piperidin-4-yl}indoline, reference compound] |  |  | 16.8 | 
28 | CCS(=O)(=O)Nc1ccc2c(c1)N(C1CCN(CCc3ccc(F)cc3)CC1)CC2 [Example 117, 1-[1-(4-fluorophenethyl)piperidin-4-yl]-6-ethanesulfonylaminoindoline] | 0.6 | 10.7 |  | 
29 | OC1(c2ccc3c(c2)N(C2CCN(CCc4ccc(F)cc4)CC2)CC3)CCCC1 [Example 141, 1-[1-(4-fluorophenethyl)piperidin-4-yl]-6-(1-hydroxycyclopentyl)indoline] | 3.03 | 343 |  | 
30 | O=C(c1ccc2c(c1)N(C1CCN(CCc3ccc(F)cc3)CC1)CC2)c1nccs1 [Example 194, 1-[1-(4-fluorophenethyl)piperidin-4-yl]-6-(2-thiazolylcarbonyl)indoline] | 4.59 | > 200 |  | 
31 | C[C@@H]1CN(CCc2ccc(F)cc2)CC[C@@H]1N1CCc2ccccc21 (relative stereo) [Example 79, cis-1-[1-(4-fluorophenethyl)-3-methylpiperidin-4-yl]indoline] | 115 | 26.5 |  | 
32 | Fc1ccc(CCN2CCC(N3CCc4ccncc43)CC2)cc1 [Example 264, 1-[1-(4-fluorophenethyl)piperidin-4-yl]-6-azaindoline] | 11.3 | 139 |  | 
33 | CC(=O)Nc1ccc(CCN2CCC(N3CCc4ccccc43)CC2)cc1 [Example 32, 1-[1-(4-acetamidophenethyl)piperidin-4-yl]indoline] | 30.2 | 30.2 |  | 
34 | Clc1ccc(CCN2CCC(N3CCc4ccccc43)CC2)cc1 [Example 6, 1-[1-(4-chlorophenethyl)piperidin-4-yl]indoline] | 4.5 | 17.4 |  | 
35 | COc1ccc(CCN2CCC(N3CCc4ccc(OC)cc43)CC2)cc1 [Example 228, 1-[1-(4-methoxyphenethyl)piperidin-4-yl]-6-methoxyindoline] | 0.34 | > 200 |  | 
36 | O=S(=O)(NCCN1CCC(N2CCc3ccccc32)CC1)c1ccc(Cl)cc1 [Example 47, 1-{1-[2-(4-chlorophenylsulfonylamino)ethyl]piperidin-4-yl}indoline] | 206 | 92.3 |  | 
